Experimental findings from PMC10447463, “Data-mining unveils structure–property–activity correlation of viral infectivity enhancing self-assembling peptides” (Nature Communications, 2023) are described below.

Data set [1] can be described thus: Turbidity, derived count rate of scattered light. Type of data set: physicochemical. The note with it: for Count Rate / kcps: derived count rate of scattered light at 633 nm, 173°, from zeta-potential measurement, 0.1 mg/mL in 1 mM KCl after 1 d at 1 mg/mL in PBS, turbidity / microscopic aggregation, mean of triplicate; for Log Count Rate: log of derived count rate. In short, it runs like this: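 One-day room-temperature aggregation at 1 mg/mL in PBS (pH 7.4) preceded measurement; samples then went into 1 mM KCl. Triplicates per sample, two independent experiments averaged.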

Data set [2] is classed as physicochemical. The note with it: for ThT Cat. / ThT-Fluorescence (categorical): ThT-active if fluorescence at least twice the control. In short, it runs like this:
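Fibrils (1 mg/mL solution) were mixed with 50 µM ThT in PBS for 15 min at RT, and fluorescence was read at λex 440/λem 488 nm against a PBS blank, as a triplicate mean ± SD. Zeta potential came from electrophoretic mobility (Smoluchowski) after 1 d aggregation at 1 mg/mL in PBS pH 7.4, diluted into 1 mM KCl.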

The mark [3] stands for this setting: Log10 of derived count rate of scattered light (turbidity).
Where [4] appears, read: turbidity, Log10 of derived count rate of scattered light, Figure 3A source data.
[5] abbreviates: turbidity, log10 of derived count rate of scattered light.

Where two headings read alike, the source gives them in different places.

As to QCKIKQII, the “Log10 Count Rate” value in data set [1] (setting [3]), in data set [1] (setting [4]) and in data set [1] (setting [5]) was 2.479 each time. Moreover, the “Count Rate / kcps” value in data set [1] is 301 kcps. The “Tht category (> 2 to blank = +)” value in data set [2] (Fig S10 panel D) is 1 (ThT. Cat is 1, if Rel. ThT >2); in data set [2] (FigS12 panel A), 1 (ThT. Cat is 1, if Rel. ThT >2). For the same substance, the “ThT Cat,” value is 1 (ThT. Cat is 1, if Rel. ThT >2) in data set [2] (FigS12 panel B) and 1 (ThT. Cat is 1, if Rel. ThT >2) in data set [2] (ThT category, 1 if Rel. ThT >2). In addition, the “ThT Cat.” value in data set [2] (ThT category, 1 if Rel. ThT >2) is given as 1 (ThT. Cat is 1, if Rel. ThT >2). Moreover, in data set [2], the “ThT Cat. / ThT-Fluorescence (categorical)” value (from here on “ThT Cat. / ThT-Fluorescence”) is 1 (ThT. Cat is 1, if Rel. ThT >2).

In the case of QCKIKQIINM, the “Log10 Count Rate” value in data set [1] (setting [3]), in data set [1] (setting [4]) and in data set [1] (setting [5]) was 4.313 in each case. In addition, the “Count Rate / kcps” value in data set [1] turned out to be 20551 kcps. Further, the “Tht category (> 2 to blank = +)” value in data set [2] (Fig S10 panel D) was 1 (ThT. Cat is 1, if Rel. ThT >2). Moreover, in data set [2] (ThT category, 1 if Rel. ThT >2), the “ThT Cat,” value was 1 (ThT. Cat is 1, if Rel. ThT >2). Also, the “ThT Cat.” value in data set [2] (ThT category, 1 if Rel. ThT >2) was 1 (ThT. Cat is 1, if Rel. ThT >2). The “ThT Cat. / ThT-Fluorescence” value in data set [2] is 1 (ThT. Cat is 1, if Rel. ThT >2).

As for QCKIKQIINMWQ [reference compound], the “Log Count Rate” value in data set [1] (Fig S8 panels A, C, asymmetric log errors) is 3.415; in data set [1] (Fig S8 panels B, D), 3.415. Further, in data set [1] (Fig S8 panels B, D, turbidity, derived count rate of scattered light), the “Count Rate” value is 2602.27. The “Log10 Count Rate” value in data set [1] (setting [3]), in data set [1] (logarithm of count rate in kcps), in data set [1] (setting [4]) and in data set [1] (setting [5]) was 3.415 each time. Also, the “Zeta Count Rate Category” value in data set [1] (category 1 / 0, no key given) was found to be 1; in data set [1] (category 1 or 0 from count rate, key not given), 1. In addition, the “Zeta Count Rate / kcps” value was determined as 2602 kcps in data set [1] (derived count rate of scattered light); 2602 kcps in data set [1] (derived count rate of scattered light, mean, std deviation in next column); 2602 kcps in data set [1] (derived count rate of scattered light, mean, std deviation in separate column). For the same substance, in data set [1], the “Count Rate / kcps” value came out at 2606 kcps. In data set [2] (Fig S10 panel D), the “Tht category (> 2 to blank = +)” value is reported as 1 (ThT. Cat is 1, if Rel. ThT >2). Also, the “ThT Cat.” value in data set [2] (Fig S10 panel E) was 1 (ThT. Cat is 1, if Rel. ThT >2); in data set [2] (ThT category, 1 if Rel. ThT >2) it was 1 (ThT. Cat is 1, if Rel. ThT >2). Further, in data set [2] (ThT category, 1 if Rel. ThT >2), the “ThT Cat,” value is 1 (ThT. Cat is 1, if Rel. ThT >2). Moreover, the “Tht rel to blank (42.1851851851852)” value stood at 3.802 in data set [2] (ThT fluorescence relative to blank (42.1851851851852 a.u.)); 3.802 in data set [2] (ThT fluorescence relative to blank, blank = 42.1851851851852); 3.802 in data set [2] (relative to blank 42.1851851851852 a.u.). Moreover, the “ThT Cat. / ThT-Fluorescence” value in data set [2] is listed as 1 (ThT. Cat is 1, if Rel. ThT >2). Further, in data set [2] (category 1/0), the “Tht category (> 1.5 to blank = +)” value is 1 (ThT. Cat is 1, if Rel. ThT >2).

With RGDKIRGDKI, the “Log10 Count Rate” value in data set [1] (setting [3]), in data set [1] (setting [4]) and in data set [1] (setting [5]) was 2.456 in each case. Further, the “Count Rate / kcps” value in data set [1] is recorded as 286 kcps. Moreover, the “Tht category (> 2 to blank = +)” value in data set [2] (Fig S10 panel D) and in data set [2] (FigS12 panel A) was 0 (ThT-inactive (N-Fold <2)) throughout. Also, the “ThT Cat.” value in data set [2] (Fig S10 panel E) is 0 (ThT-inactive (N-Fold <2)); in data set [2] (ThT category, 1 if Rel. ThT >2), 0 (ThT-inactive (N-Fold <2)). Besides, the “ThT Cat,” value was 0 (ThT-inactive (N-Fold <2)) in data set [2] (FigS12 panel B) and 0 (ThT-inactive (N-Fold <2)) in data set [2] (ThT category, 1 if Rel. ThT >2). Further, the “ThT Cat. / ThT-Fluorescence” value in data set [2] is 0 (ThT-inactive (N-Fold <2)).

Turning to RGECKFKFQF, the “Log10 Count Rate” value in data set [1] (setting [3]), in data set [1] (setting [4]) and in data set [1] (setting [5]) was 2.341 in each case. Further, in data set [1], the “Count Rate / kcps” value is reported as 219 kcps. The “Tht category (> 2 to blank = +)” value in data set [2] (Fig S10 panel D) is 1 (ThT. Cat is 1, if Rel. ThT >2). In addition, the “ThT Cat.” value was 1 (ThT. Cat is 1, if Rel. ThT >2) in data set [2] (Fig S10 panel E) and 1 (ThT. Cat is 1, if Rel. ThT >2) in data set [2] (ThT category, 1 if Rel. ThT >2). Also, the “ThT Cat,” value in data set [2] (ThT category, 1 if Rel. ThT >2) is 1 (ThT. Cat is 1, if Rel. ThT >2). The “ThT Cat. / ThT-Fluorescence” value in data set [2] is 1 (ThT. Cat is 1, if Rel. ThT >2).

RGEKIKIQINM: the “Log10 Count Rate” value in data set [1] (setting [3]), in data set [1] (setting [4]) and in data set [1] (setting [5]) was 2.774 throughout. In data set [1], the “Count Rate / kcps” value worked out at 595 kcps. The “Tht category (> 2 to blank = +)” value in data set [2] (Fig S10 panel D) was 1 (ThT. Cat is 1, if Rel. ThT >2). In addition, the “ThT Cat.” value is given as 1 (ThT. Cat is 1, if Rel. ThT >2) in data set [2] (Fig S10 panel E) and 1 (ThT. Cat is 1, if Rel. ThT >2) in data set [2] (ThT category, 1 if Rel. ThT >2). Further, the “ThT Cat,” value in data set [2] (ThT category, 1 if Rel. ThT >2) is 1 (ThT. Cat is 1, if Rel. ThT >2). Further, the “ThT Cat. / ThT-Fluorescence” value in data set [2] is reported as 1 (ThT. Cat is 1, if Rel. ThT >2).

In the case of RLRLTLC, the “Log10 Count Rate” value in data set [1] (setting [3]), in data set [1] (setting [4]) and in data set [1] (setting [5]) was 2.0991 in each case. For the same substance, the “Count Rate / kcps” value in data set [1] is 126 kcps. The “Tht category (> 2 to blank = +)” value in data set [2] (Fig S10 panel D) and in data set [2] (FigS12 panel A) was 0 (ThT-inactive (N-Fold <2)) throughout. Further, the “ThT Cat.” value in data set [2] (Fig S10 panel E) is 0 (ThT-inactive (N-Fold <2)); in data set [2] (ThT category, 1 if Rel. ThT >2), 0 (ThT-inactive (N-Fold <2)). Also, the “ThT Cat,” value in data set [2] (FigS12 panel B) was 0 (ThT-inactive (N-Fold <2)); in data set [2] (ThT category, 1 if Rel. ThT >2), 0 (ThT-inactive (N-Fold <2)). The “ThT Cat. / ThT-Fluorescence” value in data set [2] is 0 (ThT-inactive (N-Fold <2)).

As for RPRGLLLGNLR, the “Log10 Count Rate” value in data set [1] (setting [3]), in data set [1] (setting [4]) and in data set [1] (setting [5]) was 2.322 throughout. Besides, the “Count Rate / kcps” value in data set [1] is 210 kcps. The “Tht category (> 2 to blank = +)” value in data set [2] (Fig S10 panel D) and in data set [2] (FigS12 panel A) was 0 (ThT-inactive (N-Fold <2)) in each case. Moreover, the “ThT Cat,” value was 0 (ThT-inactive (N-Fold <2)) in data set [2] (FigS12 panel B) and 0 (ThT-inactive (N-Fold <2)) in data set [2] (ThT category, 1 if Rel. ThT >2). For the same substance, the “ThT Cat.” value in data set [2] (ThT category, 1 if Rel. ThT >2) is 0 (ThT-inactive (N-Fold <2)). Also, the “ThT Cat. / ThT-Fluorescence” value in data set [2] is 0 (ThT-inactive (N-Fold <2)).

With SISISRRI, the “Log10 Count Rate” value in data set [1] (setting [3]), in data set [1] (setting [4]) and in data set [1] (setting [5]) was 1.403 each time. For the same substance, the “Count Rate / kcps” value in data set [1] is 25 kcps. Moreover, the “Tht category (> 2 to blank = +)” value in data set [2] (Fig S10 panel D) and in data set [2] (FigS12 panel A) was 0 (ThT-inactive (N-Fold <2)) in each case. Moreover, the “ThT Cat.” value in data set [2] (Fig S10 panel E) was 0 (ThT-inactive (N-Fold <2)); in data set [2] (ThT category, 1 if Rel. ThT >2) it was 0 (ThT-inactive (N-Fold <2)). Besides, the “ThT Cat,” value is 0 (ThT-inactive (N-Fold <2)) in data set [2] (FigS12 panel B) and 0 (ThT-inactive (N-Fold <2)) in data set [2] (ThT category, 1 if Rel. ThT >2). Further, the “ThT Cat. / ThT-Fluorescence” value in data set [2] was 0 (ThT-inactive (N-Fold <2)).

As to TKTLTKTL, the “Log10 Count Rate” value in data set [1] (setting [3]), in data set [1] (setting [4]) and in data set [1] (setting [5]) was 2.711 throughout. The “Count Rate / kcps” value in data set [1] is on record as 515 kcps. Also, the “Tht category (> 2 to blank = +)” value in data set [2] (Fig S10 panel D) and in data set [2] (FigS12 panel A) was 0 (ThT-inactive (N-Fold <2)) throughout. The “ThT Cat,” value in data set [2] (FigS12 panel B) is 0 (ThT-inactive (N-Fold <2)); in data set [2] (ThT category, 1 if Rel. ThT >2), 0 (ThT-inactive (N-Fold <2)). The “ThT Cat.” value in data set [2] (ThT category, 1 if Rel. ThT >2) is 0 (ThT-inactive (N-Fold <2)). For the same substance, the “ThT Cat. / ThT-Fluorescence” value in data set [2] was 0 (ThT-inactive (N-Fold <2)).
